What all share (settings): C57BL/6, CD4-positive T cell
The nature of assay [1]: Inhibition of C57BL/6 mouse CD4-positive T cell differentiation at 12.5 uM relative to control. The format is functional.
Assay [2] in a line: Inhibition of C57BL/6 mouse CD4-positive T cell differentiation at 6.25 uM relative to control. In kind it is functional.
Assay [3] is described as follows: Inhibition of C57BL/6 mouse CD4-positive T cell differentiation at 50 uM relative to control. The format is functional.
Assay [4] in a line: Inhibition of C57BL/6 mouse CD4-positive T cell differentiation. In kind it is functional, cell-based.
The nature of assay [5]: Inhibition of C57BL/6 mouse CD4-positive T cell differentiation at 25 uM relative to control. In kind it is functional.

pIC50: −log10 of the molar value.

Compound `CC(=O)O[C@@H]1C[C@@]23C[C@@]24CC[C@H](O[C@@H]2OC[C@@H](O)[C@H](O)[C@H]2O)C(C)(C)[C@@H]4CC=C3[C@]2(C)C[C@]3(O)O[C@H](C(=O)[C@@H]4OC4(C)C)[C@@H](C)[C@@H]3[C@@]12C` had an inhibition at 12.5 µM in assay [1] of 24.6%. For the same compound, the inhibition at 6.25 µM in assay [2] worked out at 5.3%. For the same compound, the inhibition at 50 µM in assay [3] stood at 99.1%. In addition, the pIC50 in assay [4] was 4.75. Also, testing at 25 µM in assay [5] gave an inhibition of 82.6%.

`C[C@@H]1C[C@H]([C@@H](O)C(C)(C)O)O[C@]2(O)[C@@H](O)[C@@]3(C)C4=CC[C@H]5C(C)(C)[C@@H](O[C@@H]6O[C@H](CO)[C@H](O)[C@H](O)[C@H]6O)CC[C@@]56C[C@@]46CC[C@]3(C)[C@@H]12` had an inhibition at 12.5 µM in assay [1] of 51.5%. The inhibition at 6.25 µM in assay [2] amounted to 10.3%. In assay [3], this compound came in with an inhibition at 50 µM of 99.6%. In assay [4], this compound gave a pIC50 of 4.74. This compound also came in with an inhibition at 25 µM in assay [5] of 74.1%.

`CC(=O)O[C@H]([C@H]1C[C@@H](C)C2=C(O1)[C@@H](O)[C@@]1(C)[C@@H]3CC[C@H]4C(C)(C)[C@@H](O[C@@H]5O[C@H](CO)[C@H](O)[C@H](O)[C@H]5O)CC[C@@]45C[C@@]35CC[C@]21C)C(C)(C)O` yielded an inhibition at 12.5 µM in assay [1] of 21.3%. For the same compound, the inhibition at 6.25 µM in assay [2] is 10.2%. Testing at 50 µM in assay [3] gave an inhibition of 96.8%. Also, the pIC50 in assay [4] was 4.84. Moreover, in assay [5], the inhibition at 25 µM was found to be 68.3%.

For the compound `CC(=O)O[C@@H]1C[C@@]23C[C@@]24CC[C@H](O[C@@H]2O[C@H](CO)[C@H](O)[C@H](O)[C@H]2O)C(C)(C)[C@@H]4CC=C3[C@]2(C)C[C@@]3(O)O[C@H](C(=O)[C@H]4OC4(C)C)[C@@H](C)[C@@H]3[C@@]12C`, testing at 12.5 µM in assay [1] gave an inhibition of 52.4%. Besides, the inhibition at 6.25 µM in assay [2] worked out at 8.9%. Moreover, the inhibition at 50 µM in assay [3] is 98.6%. In assay [4], this compound had a pIC50 of 4.84. At 25 µM the inhibition in assay [5] was 68.3%.

In assay [1], `CC(=O)O[C@H]([C@H]1C[C@@H](C)C2=C(O1)[C@@H](O)[C@@]1(C)C3=CC[C@H]4C(C)(C)[C@@H](O[C@@H]5O[C@H](CO)[C@H](O)[C@H](O)[C@H]5O)CC[C@@]45C[C@@]35CC[C@]21C)C(C)(C)O` displayed an inhibition at 12.5 µM of 54.3%. Besides, in assay [2], the inhibition at 6.25 µM amounted to 21.6%. Also, testing at 50 µM in assay [3] gave an inhibition of 96.6%. The compound also had a pIC50 in assay [4] of 4.90. For the same compound, the inhibition at 25 µM in assay [5] worked out at 92.1%.

The record behind these values is ChEMBL document CHEMBL4043147, “9,19-Cycloartenol glycoside G3 from Cimicifuga simplex regulates immune responses by modulating Th17/Treg ratio” (Bioorg Med Chem, 2017).
